# From publication PMC8766756, “Insights on Cancer Cell Inhibition, Subcellular Activities, and Kinase Profile of Phenylacetamides Pending 1H-Imidazol-5-One Variants” (Frontiers in Pharmacology, 2022)
# Where “and” joins values, the source holds several entries; their conditions need not be identical. Equal entries are not always repeated.
# Assays:
# Assay in all cases: PamChip tyrosine kinase microarray
# Assay type in all cases: biochemical
# Conditions in all cases: 0.1 µM, HL60 lysate
# EphA1 (P21709) = target: T1, EphA1 (P21709) (Homo sapiens, UniProt P21709)
# T1 construct: purchased PamGene (PamChip PTK array, Upstream Kinase Analysis)
# T1 sequence (P21709 26-976): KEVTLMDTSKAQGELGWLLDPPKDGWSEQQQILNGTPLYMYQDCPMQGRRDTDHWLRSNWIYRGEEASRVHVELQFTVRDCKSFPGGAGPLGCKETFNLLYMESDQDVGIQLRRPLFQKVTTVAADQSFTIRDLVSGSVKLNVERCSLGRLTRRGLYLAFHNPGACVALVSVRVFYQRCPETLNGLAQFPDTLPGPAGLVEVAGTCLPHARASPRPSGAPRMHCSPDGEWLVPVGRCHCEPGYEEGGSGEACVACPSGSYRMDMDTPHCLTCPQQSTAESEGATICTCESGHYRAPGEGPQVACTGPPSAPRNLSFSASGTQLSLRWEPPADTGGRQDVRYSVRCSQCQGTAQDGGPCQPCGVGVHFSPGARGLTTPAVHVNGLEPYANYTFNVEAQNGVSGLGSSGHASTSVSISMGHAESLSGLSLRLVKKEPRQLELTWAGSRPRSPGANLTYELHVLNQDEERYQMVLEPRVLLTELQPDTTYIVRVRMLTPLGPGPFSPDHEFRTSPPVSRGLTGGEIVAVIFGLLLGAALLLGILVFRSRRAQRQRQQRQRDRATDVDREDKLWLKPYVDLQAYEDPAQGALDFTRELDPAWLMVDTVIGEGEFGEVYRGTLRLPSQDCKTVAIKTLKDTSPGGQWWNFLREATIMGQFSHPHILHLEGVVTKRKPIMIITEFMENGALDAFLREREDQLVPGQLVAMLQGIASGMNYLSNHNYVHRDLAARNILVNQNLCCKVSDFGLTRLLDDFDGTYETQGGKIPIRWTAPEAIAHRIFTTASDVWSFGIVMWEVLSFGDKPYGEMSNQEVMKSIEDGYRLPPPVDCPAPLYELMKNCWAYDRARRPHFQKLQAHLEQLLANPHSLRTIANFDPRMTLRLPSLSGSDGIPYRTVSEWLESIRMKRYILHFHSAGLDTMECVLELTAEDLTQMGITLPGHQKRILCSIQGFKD
# Summary of the method: (§1)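 HL60 (AML) cell lysate was spiked with compound at 0.001, 0.01, 0.1, 1, 10 and 50 µM, or 2% v/v DMSO as control, then profiled in technical replicates on a tyrosine kinase peptide array of 196 phosphosites. Kinase activity was inferred from peptide-set changes using an upstream kinase tool.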
# IRR (P14616) = target: T2, IRR (P14616) (Homo sapiens, UniProt P14616)
# T2 construct: purchased PamGene (PamChip PTK array, Upstream Kinase Analysis)
# Summary of the method: as §1
# JAK2 (O60674) = target: T3, JAK2 (O60674) (Homo sapiens, UniProt O60674)
# T3 construct: purchased PamGene (PamChip PTK array, Upstream Kinase Analysis)
# Summary of the method: as §1
# ZAP70 (P43403) = target: T4, ZAP70 (P43403) (Homo sapiens, UniProt P43403)
# T4 construct: purchased PamGene (PamChip PTK array, Upstream Kinase Analysis)
# T4 sequence (P43403 1-619): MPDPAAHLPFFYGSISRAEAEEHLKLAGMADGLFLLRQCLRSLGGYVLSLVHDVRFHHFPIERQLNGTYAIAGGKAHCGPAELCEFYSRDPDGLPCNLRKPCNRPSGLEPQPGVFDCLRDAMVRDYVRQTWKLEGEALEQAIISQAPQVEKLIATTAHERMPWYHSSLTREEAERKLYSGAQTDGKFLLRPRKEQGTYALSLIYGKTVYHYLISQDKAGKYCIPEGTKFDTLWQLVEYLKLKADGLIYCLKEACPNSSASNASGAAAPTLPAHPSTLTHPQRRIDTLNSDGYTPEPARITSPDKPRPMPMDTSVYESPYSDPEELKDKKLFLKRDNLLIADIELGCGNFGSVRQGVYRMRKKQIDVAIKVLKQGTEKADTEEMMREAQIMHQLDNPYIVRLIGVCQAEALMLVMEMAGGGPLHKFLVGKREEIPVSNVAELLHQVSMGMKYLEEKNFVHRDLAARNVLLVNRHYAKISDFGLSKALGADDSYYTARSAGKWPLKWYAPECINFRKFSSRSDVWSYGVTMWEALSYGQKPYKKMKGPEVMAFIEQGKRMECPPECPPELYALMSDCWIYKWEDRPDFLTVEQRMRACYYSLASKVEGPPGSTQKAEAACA
# Summary of the method: as §1
# T2 sequence (P14616 27-1297): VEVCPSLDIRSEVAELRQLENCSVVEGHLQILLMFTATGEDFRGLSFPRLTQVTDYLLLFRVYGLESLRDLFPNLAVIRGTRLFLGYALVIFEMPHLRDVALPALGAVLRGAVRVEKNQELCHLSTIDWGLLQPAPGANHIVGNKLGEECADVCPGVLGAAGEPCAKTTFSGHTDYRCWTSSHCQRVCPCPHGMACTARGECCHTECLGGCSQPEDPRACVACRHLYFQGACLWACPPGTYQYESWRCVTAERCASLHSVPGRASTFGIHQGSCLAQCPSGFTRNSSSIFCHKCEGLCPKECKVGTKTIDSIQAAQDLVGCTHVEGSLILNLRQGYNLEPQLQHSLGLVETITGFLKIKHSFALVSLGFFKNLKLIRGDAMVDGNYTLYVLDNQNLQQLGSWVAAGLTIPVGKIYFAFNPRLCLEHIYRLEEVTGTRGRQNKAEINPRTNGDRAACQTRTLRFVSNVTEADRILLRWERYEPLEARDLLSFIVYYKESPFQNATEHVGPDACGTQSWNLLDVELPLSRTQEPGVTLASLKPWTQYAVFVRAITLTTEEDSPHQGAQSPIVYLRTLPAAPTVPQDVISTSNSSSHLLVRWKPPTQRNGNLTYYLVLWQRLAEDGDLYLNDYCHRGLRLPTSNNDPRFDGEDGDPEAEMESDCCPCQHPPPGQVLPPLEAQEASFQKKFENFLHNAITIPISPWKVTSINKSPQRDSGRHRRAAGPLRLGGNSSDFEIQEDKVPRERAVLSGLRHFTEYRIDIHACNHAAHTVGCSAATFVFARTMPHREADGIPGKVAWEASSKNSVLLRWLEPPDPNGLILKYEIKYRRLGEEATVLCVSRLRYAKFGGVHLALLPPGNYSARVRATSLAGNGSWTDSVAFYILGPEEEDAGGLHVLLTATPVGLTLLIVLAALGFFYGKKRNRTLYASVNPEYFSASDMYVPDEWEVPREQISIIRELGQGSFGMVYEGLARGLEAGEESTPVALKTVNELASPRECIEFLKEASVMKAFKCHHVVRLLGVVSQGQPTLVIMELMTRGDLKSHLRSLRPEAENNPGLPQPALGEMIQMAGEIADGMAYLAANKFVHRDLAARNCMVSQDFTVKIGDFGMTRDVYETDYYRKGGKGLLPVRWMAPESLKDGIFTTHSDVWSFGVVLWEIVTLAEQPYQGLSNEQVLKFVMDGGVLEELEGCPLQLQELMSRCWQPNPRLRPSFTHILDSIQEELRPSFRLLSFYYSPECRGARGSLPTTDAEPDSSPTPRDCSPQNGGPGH
# T3 sequence (O60674 whole entry): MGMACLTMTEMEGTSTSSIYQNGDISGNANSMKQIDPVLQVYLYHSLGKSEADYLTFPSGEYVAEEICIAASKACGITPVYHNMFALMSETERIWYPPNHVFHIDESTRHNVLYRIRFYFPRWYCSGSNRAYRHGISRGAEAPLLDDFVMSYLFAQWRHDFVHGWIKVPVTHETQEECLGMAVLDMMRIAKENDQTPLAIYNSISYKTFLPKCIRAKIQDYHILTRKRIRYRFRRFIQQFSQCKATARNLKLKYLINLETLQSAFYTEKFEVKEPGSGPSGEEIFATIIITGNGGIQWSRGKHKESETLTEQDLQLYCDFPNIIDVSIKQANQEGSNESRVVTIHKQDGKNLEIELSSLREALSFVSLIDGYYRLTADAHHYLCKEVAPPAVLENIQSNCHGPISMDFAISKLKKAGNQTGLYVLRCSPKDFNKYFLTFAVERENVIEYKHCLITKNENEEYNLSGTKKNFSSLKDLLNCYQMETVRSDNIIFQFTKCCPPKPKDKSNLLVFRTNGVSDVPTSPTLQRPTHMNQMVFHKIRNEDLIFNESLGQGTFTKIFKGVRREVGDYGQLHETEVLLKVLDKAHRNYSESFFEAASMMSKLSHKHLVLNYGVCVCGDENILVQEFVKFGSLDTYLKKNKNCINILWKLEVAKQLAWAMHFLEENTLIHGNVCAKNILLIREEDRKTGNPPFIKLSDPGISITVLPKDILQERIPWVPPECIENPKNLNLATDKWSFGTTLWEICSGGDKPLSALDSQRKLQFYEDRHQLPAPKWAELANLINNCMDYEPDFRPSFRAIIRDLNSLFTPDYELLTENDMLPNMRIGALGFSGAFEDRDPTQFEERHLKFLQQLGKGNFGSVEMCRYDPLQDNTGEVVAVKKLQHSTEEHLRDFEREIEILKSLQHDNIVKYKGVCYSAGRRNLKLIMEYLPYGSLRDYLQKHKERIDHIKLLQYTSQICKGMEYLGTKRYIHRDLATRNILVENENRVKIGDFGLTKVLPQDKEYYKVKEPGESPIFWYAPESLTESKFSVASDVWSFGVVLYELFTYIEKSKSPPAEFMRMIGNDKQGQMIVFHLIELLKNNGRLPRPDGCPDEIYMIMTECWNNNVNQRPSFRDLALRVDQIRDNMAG
smiles,measurement,setting,value
"COc1ccc(/C=C2\N=C(C)N(c3ccc(CC(=O)NCc4ccccc4)cc3)C2=O)cc1 [Compound 4c, (Z)-N-Benzyl-2-(4-(4-(4-methoxybenzylidene)-2-methyl-5-oxo-4,5-dihydro-1H-imidazol-1-yl)phenyl)acetamide]",Mean Final score (Kinase score),EphA1 (P21709),2.326
same,Mean Kinase Statistic,EphA1 (P21709),-1.184
same,Mean Significance Score,EphA1 (P21709),1.983
same,Mean Specificity Score,EphA1 (P21709),0.3263
same,Mean Final score (Kinase score),IRR (P14616),2.412
same,Mean Kinase Statistic,IRR (P14616),-1.1771
same,Mean Significance Score,IRR (P14616),2.053
same,Mean Specificity Score,IRR (P14616),0.3184
same,Mean Significance Score,JAK2 (O60674),2.048
same,Mean Specificity Score,JAK2 (O60674),1.216
same,Mean Final score (Kinase score),JAK2 (O60674); listed as KIM-161,3.19 and 3.191
same,Mean Kinase Statistic,JAK2 (O60674); listed as KIM-161,−1.43
same,Mean Final score (Kinase score),ZAP70 (P43403),1.771
same,Mean Kinase Statistic,ZAP70 (P43403),-1.015
same,Mean Significance Score,ZAP70 (P43403),1.836
same,Mean Specificity Score,ZAP70 (P43403),0.009048
